The test system of assay [1] is HL-60. Briefly: Antiproliferative activity against human HL60 cells assessed as inhibition of cell viability incubated for 48 hrs by MTS assay. Particulars: for IC50: HL-60, 48 h. It counts as functional, cell-based. (In general: Tetrazolium assays rely on reduction of a dye to a coloured formazan, in cell work by metabolically active cells.)
The species entered for a further assay is Homo sapiens. The assay is described as follows: Selectivity index, ratio of IC50 for recombinant human Glyoxalase-1 expressed in Escherichia coli BL21 (DE3) to IC50 for antiproliferative activity against human HL60 cells.
A further assay addresses Lactoylglutathione lyase (Homo sapiens, UniProt Q04760). Briefly: Inhibition of recombinant human Glyoxalase-1 expressed in Escherichia coli BL21 (DE3) assessed as inhibition of S-D-lactoylglutathione formation using MG and reduced glutathione as substrate measured for 2 mins by spectrophotometric method.
The subject of assay [2] is HL-60. The assay is described as follows: Induction of apoptosis in human HL60 cells assessed as DNA ladder formation at 1 to 3 uM incubated for 5 hrs by agarose gel electrophoresis method. In kind it is functional, cell-based.
The test system of assay [3] is HL-60. The assay is described as follows: Induction of apoptosis in human HL60 cells assessed as caspase 9 activation at 0.1 to 0.5 uM incubated up to 24 hrs by flurometric analysis. It counts as functional, cell-based.
Assay [4] deals with HL-60. The assay is described as follows: Antiproliferative activity against human HL60 cells assessed as inhibition of cell viability up to 50 uM incubated for 48 hrs by MTS assay. It counts as functional, cell-based.
For assay [5], the system named is HL-60. The assay is described as follows: Induction of apoptosis in human HL60 cells assessed as caspase 3 activation at 0.1 to 0.5 uM incubated up to 24 hrs by flurometric analysis. In kind it is functional, cell-based.
For assay [6], the system named is HL-60. The assay is described as follows: Induction of apoptosis in human HL60 cells assessed as increase in MG level accumulation at 1 to 3 uM incubated for 8 to 24 hrs by HLPC analysis. In kind it is functional, cell-based.
In assay [7] the test system is HL-60. The assay is described as follows: Induction of apoptosis in human HL60 cells assessed as nuclear condensation/fragmentation at 5 uM incubated for 6 hrs by Hoechst 33342 staining-based fluorescence microscopic method. In kind it is functional, cell-based.

The term IC50 denotes the concentration that inhibits the measured activity by half.

Structures are written as SMILES. Calls of active or inactive are those of the source. The rule behind the calls is not given here.

Sequence of Lactoylglutathione lyase (Q04760 whole entry): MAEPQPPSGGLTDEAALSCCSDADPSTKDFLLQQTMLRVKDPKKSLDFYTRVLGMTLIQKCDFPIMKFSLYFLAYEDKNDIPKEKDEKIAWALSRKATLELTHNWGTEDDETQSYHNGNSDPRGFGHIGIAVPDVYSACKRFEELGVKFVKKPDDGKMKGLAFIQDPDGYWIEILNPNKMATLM

On to `CC(C)(O)C1Cc2c(cc(O)c3c(=O)c(-c4ccc(O)cc4)coc23)O1` (racemic), for which the half-maximal inhibitory concentration (IC50) with HL-60 [1] amounted to 0.175 µM; on Lactoylglutathione lyase, 109 µM. The Ratio IC50 in the assay listed under Homo sapiens came out at 625.

With `CC(C)(O)[C@H]1Cc2c(cc(O)c3c(=O)c(-c4ccc(O)cc4)coc23)O1`, the result in the assay with HL-60 [2], in the assay with HL-60 [1], in the assay on HL-60 [3], in the assay on HL-60 [4], with HL-60 [5] and in the assay with HL-60 [6] was inactive. Further, the outcome in the assay on HL-60 [7] was inactive. The IC50 on Lactoylglutathione lyase stood at 100 µM.

As to `CC(C)(O)[C@@H]1Cc2c(cc(O)c3c(=O)c(-c4ccc(O)cc4)coc23)O1`, the result with HL-60 [2] and in the assay with HL-60 [7] was Active. The IC50 is 0.09 µM in the assay with HL-60 [1] and 100 µM on Lactoylglutathione lyase.

Source of the values: ChEMBL document CHEMBL4622839, “Induction of enantio-selective apoptosis in human leukemia HL-60 cells by (S)-erypoegin K, an isoflavone isolated from Erythrina poeppigiana” (Bioorg Med Chem, 2020).
